pIC50: −log10 of the molar value.
Legend:
[1] = molecular target: Histone acetyltransferase p300 (Homo sapiens, UniProt Q09472); experiment: Inhibition of p300 HAT (unknown origin) using 3H-acetyl-CoA as substrate assessed as H3 peptide acetylation preincubated with compound for 15 mins followed by substrate addition and measured after 30 mins by microbeta scintillation counter analysis
LNCaP = experiment: Antiproliferative activity against human LNCaP cells assessed as inhibition of cell growth incubated for 48 hrs by MTT assay; type: functional, cell-based
MCF7 = experiment: Antiproliferative activity against human MCF7 cells assessed as inhibition of cell growth incubated for 48 hrs by MTT assay; type: functional, cell-based; conditions: MCF7, 48 h
PANC-1 = experiment: Antiproliferative activity against human PANC-1 cells assessed as inhibition of cell growth incubated for 48 hrs by MTT assay; type: functional, cell-based; conditions: PANC-1, 48 h
MCF-10A = experiment: Antiproliferative activity against human MCF-10A cells assessed as inhibition of cell growth incubated for 48 hrs by MTT assay; type: functional, cell-based

Histone acetyltransferase p300, sequence (Q09472 whole entry): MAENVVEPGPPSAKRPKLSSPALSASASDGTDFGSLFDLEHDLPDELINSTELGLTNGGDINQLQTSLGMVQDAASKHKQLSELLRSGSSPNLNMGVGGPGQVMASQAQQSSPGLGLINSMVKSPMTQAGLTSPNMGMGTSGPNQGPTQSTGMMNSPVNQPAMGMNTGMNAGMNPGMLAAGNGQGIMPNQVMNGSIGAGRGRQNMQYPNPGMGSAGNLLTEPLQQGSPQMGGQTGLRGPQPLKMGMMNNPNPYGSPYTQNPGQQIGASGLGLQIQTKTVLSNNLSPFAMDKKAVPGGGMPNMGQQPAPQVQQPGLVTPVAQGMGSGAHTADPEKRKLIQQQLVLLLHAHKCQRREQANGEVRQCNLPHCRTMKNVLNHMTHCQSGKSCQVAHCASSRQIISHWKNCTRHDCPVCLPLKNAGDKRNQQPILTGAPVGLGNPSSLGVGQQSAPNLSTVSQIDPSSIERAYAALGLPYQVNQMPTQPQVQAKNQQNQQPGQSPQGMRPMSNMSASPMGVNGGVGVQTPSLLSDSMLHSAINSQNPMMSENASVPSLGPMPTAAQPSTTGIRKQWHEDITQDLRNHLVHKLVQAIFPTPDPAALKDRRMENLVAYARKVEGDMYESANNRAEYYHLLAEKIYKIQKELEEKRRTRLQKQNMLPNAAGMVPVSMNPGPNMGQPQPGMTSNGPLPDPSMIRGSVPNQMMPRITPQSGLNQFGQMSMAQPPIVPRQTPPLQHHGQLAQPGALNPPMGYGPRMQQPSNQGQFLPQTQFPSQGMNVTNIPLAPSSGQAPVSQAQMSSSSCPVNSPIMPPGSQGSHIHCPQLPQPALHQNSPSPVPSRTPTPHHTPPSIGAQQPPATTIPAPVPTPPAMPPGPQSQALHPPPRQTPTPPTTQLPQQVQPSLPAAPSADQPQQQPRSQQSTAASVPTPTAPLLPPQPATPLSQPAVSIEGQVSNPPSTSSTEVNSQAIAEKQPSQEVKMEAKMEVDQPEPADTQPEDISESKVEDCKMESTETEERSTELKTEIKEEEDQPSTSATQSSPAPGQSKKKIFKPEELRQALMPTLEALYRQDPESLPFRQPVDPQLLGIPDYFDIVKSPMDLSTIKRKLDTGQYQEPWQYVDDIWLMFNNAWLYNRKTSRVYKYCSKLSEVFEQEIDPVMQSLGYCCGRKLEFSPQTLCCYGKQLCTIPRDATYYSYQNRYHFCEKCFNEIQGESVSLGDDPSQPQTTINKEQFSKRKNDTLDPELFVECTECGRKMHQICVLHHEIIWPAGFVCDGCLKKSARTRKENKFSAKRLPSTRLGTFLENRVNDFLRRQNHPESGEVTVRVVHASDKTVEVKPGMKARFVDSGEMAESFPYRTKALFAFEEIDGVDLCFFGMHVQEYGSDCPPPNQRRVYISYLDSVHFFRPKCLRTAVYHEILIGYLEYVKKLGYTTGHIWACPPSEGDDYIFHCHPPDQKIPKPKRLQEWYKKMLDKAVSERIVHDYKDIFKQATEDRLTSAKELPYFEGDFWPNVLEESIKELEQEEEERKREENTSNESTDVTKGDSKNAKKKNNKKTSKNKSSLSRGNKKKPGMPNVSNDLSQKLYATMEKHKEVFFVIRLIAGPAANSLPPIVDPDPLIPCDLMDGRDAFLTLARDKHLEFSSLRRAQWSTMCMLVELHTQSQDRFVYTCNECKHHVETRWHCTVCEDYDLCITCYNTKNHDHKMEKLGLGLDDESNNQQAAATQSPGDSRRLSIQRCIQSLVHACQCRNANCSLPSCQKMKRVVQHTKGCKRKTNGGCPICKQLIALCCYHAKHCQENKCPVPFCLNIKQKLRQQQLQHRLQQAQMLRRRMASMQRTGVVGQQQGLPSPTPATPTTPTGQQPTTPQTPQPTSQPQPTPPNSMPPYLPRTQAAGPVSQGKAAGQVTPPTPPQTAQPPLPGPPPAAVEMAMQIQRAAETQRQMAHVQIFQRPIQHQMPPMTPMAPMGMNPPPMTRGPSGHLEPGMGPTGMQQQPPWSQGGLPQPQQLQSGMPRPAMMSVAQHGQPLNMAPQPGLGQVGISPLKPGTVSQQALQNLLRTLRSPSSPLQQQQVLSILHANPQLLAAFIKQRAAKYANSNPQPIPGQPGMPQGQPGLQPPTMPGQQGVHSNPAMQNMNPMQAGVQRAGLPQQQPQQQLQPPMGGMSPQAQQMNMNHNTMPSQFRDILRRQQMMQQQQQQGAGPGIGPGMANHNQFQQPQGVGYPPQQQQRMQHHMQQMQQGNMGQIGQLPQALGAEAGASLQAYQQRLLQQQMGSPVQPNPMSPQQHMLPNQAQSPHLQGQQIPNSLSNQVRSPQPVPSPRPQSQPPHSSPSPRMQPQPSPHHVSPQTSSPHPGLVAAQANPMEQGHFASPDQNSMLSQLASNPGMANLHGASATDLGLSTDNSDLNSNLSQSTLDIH

Structure (SMILES) | pIC50 [1] | pIC50 (LNCaP) | pIC50 (MCF7) | pIC50 (PANC-1) | pIC50 (MCF-10A)
COc1ccc2cc3[n+](cc2c1OC)CCCSc1cc2c(cc1-3)OCO2 | < 4.70 |  |  |  | 
CNC(=O)Nc1ccc2c(c1)CC[C@@]21OC(=O)N(CC(=O)N(Cc2ccc(F)cc2)[C@@H](C)C(F)(F)F)C1=O [A-485] |  | 5.77 | < 4.52 | < 4.52 | 
COc1ccc2cc3[n+](cc2c1OC)CCCNc1cc2c(cc1-3)OCO2 | < 4.70 |  |  |  | 
COc1cc2cc3[n+](cc2cc1OC)CCCSc1cc2c(cc1-3)OCO2 | 4.94 |  |  |  | 
COc1ccc2cc3[n+](cc2c1OC)CCc1ccsc1-3 | < 4.70 |  |  |  | 
COc1cc2cc3[n+](cc2cc1OC)CCCS(=O)(=O)c1cc2c(cc1-3)OCO2 | < 4.70 |  |  |  | 

More lines, main results first:

pIC50 [1] | pIC50 (LNCaP) | pIC50 (MCF7) | pIC50 (PANC-1) | Structure (SMILES) | pIC50 (MCF-10A)
5.17 |  |  |  | COc1ccc2cc3[n+](cc2c1OC)CCNc1cc2c(cc1-3)OCO2 | 
5.05 | < 4.30 | < 4.30 | < 4.30 | COc1ccc2cc3[n+](cc2c1OC)CCc1cc2c(cc1-3)OCO2 [BERBERINE CHLORIDE] | < 4.30
5.01 |  |  |  | COc1cc2cc3[n+](cc2cc1OC)CCCNc1cc2c(cc1-3)OCO2 | 
5.47 | < 4.30 | 4.44 | < 4.30 | COc1cc2cc3[n+](cc2cc1OC)CCNc1cc2c(cc1-3)OCO2 | < 4.30
5.03 |  |  |  | C1=CC2C=C3c4cc5c(cc4OCC[N+]3=CC2S1)OCO5 (configuration not stated) | 
5.15 |  |  |  | C1=CC2C=C3c4cc5c(cc4NCC[N+]3=CC2S1)OCO5 (configuration not stated) | 
